The text below walks through data of US7524849B2, “5-arylpyrimidines as anticancer agents” (Wyeth Holdings Corporation, priority 2003, dated 2009).

By pIC50 is commonly meant −log10 of the IC50, conventionally taken in molar units. For orientation: melting point means the temperature, or range, at which the solid turns liquid. As usually defined, the IC50 is the concentration that gives 50% inhibition. A higher IC50 goes with a need for much substance.

Molecules are shown by their SMILES. pIC50: −log10 of the molar value.

Data set [1] deals with MAP-rich tubulin. The data set is described as follows: Tubulin polymerization test with MAP-rich tubulin. The data set is classed as biochemical, bovine. The conditions noted are these: 0.3 μM compound, mean A340 at 20 min, fold enhancement over control. The method, then: (§1) Medium is RPMI-1640 with L-glutamine, supplemented with 10% heat-inactivated fetal calf serum, 100 units/mL penicillin, and 100 μg/mL streptomycin (Gibco, Grand Island, N.Y.). Microtubule-associated protein (MAP)-rich tubulin, containing about 70% tubulin and 30% MAPs (#ML113), and highly purified tubulin (>99% pure, #TL238), both from bovine brain, are obtained from Cytoskeleton, Inc., Denver, Colo. PEM buffer (80 mM piperazine-N,N′-bis[2-ethanesulfonic acid], pH 6.9, 1 mM ethylene glycol-bis(β-aminoethyl ether)-N,N,N′,N′-tetraacetic acid, 1 mM magnesium chloride) and guanosine 5′-triphosphate (GTP) are also obtained from Cytoskeleton. […] [^3H]vinblastine, specific activity 9.60 Ci/mmol and MicroSpin G-50 columns are obtained from Amersham Biosciences (Piscataway, N.J.). […] Other reagents are obtained from Sigma (St. Louis, Mo.).
MAP-rich tubulin is dissolved in ice-cold PEM buffer containing 1 mM GTP (GPEM buffer) at a concentration of 1.3 mg/mL. The solution is centrifuged at top speed in an Eppendorf model 5415C microcentrifuge (Brinkmann Instruments, Westbury, N.Y.) for 10 min at 4° immediately before use. The tubulin solution is added to wells of a ½-area 96-well plate (Costar No. 3696, Corning, Inc., Corning, N.Y.) already containing the compounds of interest. Each compound is tested in duplicate at a final concentration of 0.3 μM in a volume of 110 μL per well. The final DMSO concentration in all wells is 0.3%. Control reactions, which receive compound solvent only, are done in quadruplicate. The plate is put in a SpectraMax Plus plate reader (Molecular Devices Corp. Sunnyvale, Calif.) thermostated at 24° and the absorbance of each well at 340 nm, a measure of the appearance of turbidity due to tubulin polymer formation, is determined every minute for 60 minutes. The absorbance at time 0 for each well is subtracted from each of the subsequent absorbance readings for that well, and then the duplicates are averaged.

For data set [2], the system named is highly purified tubulin (tubulin heterodimer). In words: Competitive binding test, [3H]vinblastine. The conditions noted are these: competitor 100 μM, [3H]vinblastine 100 nM, percent of binding to control without competitor. On the set-up: species or system bovine. As to the method: as §1
(§2) The binding of examples of this invention to highly purified tubulin is studied by competitive inhibition methods.
(§3) These solutions are incubated at 24° for 1 hr and then applied to MicroSpin G-50 columns which are centrifuged for 2 min at 3000 rpm in an Eppendorf 5415C microfuge. An aliquot of each column effluent (containing tubulin and bound radioligand) is mixed with scintillation fluid and counted in a liquid scintillation spectrometer. […] Quadruplicates are averaged, and the ability of the competitor to inhibit the binding of the radioligand is expressed as a percentage of control binding in the absence of any competitor.

Data set [3] shares this test system. The data set is described as follows: Competitive binding test, [3H]colchicine. Further details: species or system bovine. The conditions noted are these: competitor 100 μM, [3H]colchicine 50 nM, percent of binding to control without competitor. As to the method:
as §1, §2, §3

Data set [4] has as its system COLO 205 cells. The data set is described as follows: MTS cytotoxicity test with COLO 205 cells. The data set is classed as cell-based, human. The conditions noted are these: three days with compound. The method, then: (§4) The assay, which is sold in kit form by Promega (Madison, Wis.; CellTiter 96 AQueous Non-Radioactive Cell Proliferation Assay), is based on the conversion by viable cells, but not by dead cells, of the tetrazolium salt, MTS (3-(4,5-dimethylthiazol-2-yl)-5-(3-carboxymethoxyphenyl)-2-(4-sulphophenyl)-2H-tetrazolium, inner salt), into a water-soluble colored formazan which is detected by spectrophotometry. Compounds are tested at nine concentrations, in order to determine IC50 values. For the test procedure, cells are harvested by trypsinization, washed, counted and distributed to wells of 96-well flat-bottom microtiter plates at 1000 cells per well in 200 μL of medium. In addition, one row of wells on a separate plate receives cells as above (“time 0” plate). All plates are incubated at 37° in humidified 5% CO2 in air for about 24 hr.
On day 2, compounds for test are diluted and added to wells. Compounds are dissolved in DMSO at 10 mg/mL. For each compound, nine serial 2-fold dilutions are prepared in DMSO. Ten μL of each dilution in DMSO are transferred to 100 μL of medium, mixed well, and then 5 μL of this dilution are transferred in quadruplicate to wells containing cells. The final high concentration of each compound is typically 5 μM. Plates are returned to the incubator for three days. At the time of drug addition to the experimental plates, the MTS assay is run on the “time 0” plate. This produces the “time 0 MTS value” which is related to the number of viable cells per well at the time of drug addition.
After three days of culture with test compounds (day 5 overall), the MTS assay is done on all wells of the experimental plates. The absorbance values of the quadruplicate sample wells are averaged and divided by the average of the “time 0” values. The average of control wells without drug, divided by the average “time 0” value, gives the maximal relative increase in MTS color yield due to cell growth during the final three days of culture. The average of control wells with high drug concentration, divided by the “time 0” value, gives the minimal relative color yield for cells that were completely killed. The nine values for each compound are plotted against concentration, and the concentration that produces a relative color yield half way between the maximum and minimum is taken as the IC50 value.
COLO 205 is a human colon carcinoma cell line that is used for comparative testing of the examples of this invention and several reference compounds. This line is sensitive to paclitaxel and vincristine.
In general terms: Formazan colour is commonly taken as a measure of viable cells.

For data set [5], the system named is S1-M1 cells. The data set is described as follows: MTS cytotoxicity test with S1-M1 cells (MXR). The conditions noted are these: for IC50: S1-M1 cells, mean of 2 experiments; for Ratio: IC50 on S1-M1 cells/IC50 on S1 cells. The data set is classed as cell-based, human.
Source text: (§5) Human cancer cell lines, unless otherwise noted, are obtained from the American Type Culture Collection (Rockville, Md.). The following drug-sensitive parental cell lines, and their derived drug-resistant counterparts, are obtained from the originators as listed: (a) S1 (parental line from a subclone of human colon carcinoma line LS174T) and derived S1-M1-3.2 (herein called S1-M1) which expresses the MXR drug transporter protein, are provided by Dr. L. Greenberger, Wyeth Research (Rabindran, S. K., He, H., Singh, M., Brown, E., Collins, K. I., Annable, T., and Greenberger, L. M. Reversal of a novel multidrug resistance mechanism in human colon carcinoma cells by fumitremorgin C. Cancer Res., 58: 5850-5858, 1998); (b) parental HL-60 human promyelocytic leukemia line and derived HL-60/ADR, which expresses the MRP1 drug transporter protein, are provided by Dr. M. Center, University of Kansas (McGrath, T., and Center, M. S. Adriamycin resistance in HL60 cells in the absence of detectable P-glycoprotein. Biochem. Biophys. […] J. Biol. Chem., 261: 7762-7770, 1986) via Dr. L. Greenberger, Wyeth Research.
as §4
(§6) On day 2, compounds for test are diluted and added to wells. Compounds are dissolved in DMSO at 10 mg/mL. For each compound, nine serial 2-fold dilutions are prepared in DMSO. Ten μL of each dilution in DMSO are transferred to 100 μL of medium, mixed well, and then 5 μL of this dilution are transferred in quadruplicate to wells containing cells. […] Plates are returned to the incubator for three days. At the time of drug addition to the experimental plates, the MTS assay is run on the “time 0” plate. This produces the “time 0 MTS value” which is related to the number of viable cells per well at the time of drug addition.
(§7) After three days of culture with test compounds (day 5 overall), the MTS assay is done on all wells of the experimental plates. The absorbance values of the quadruplicate sample wells are averaged and divided by the average of the “time 0” values. […] The nine values for each compound are plotted against concentration, and the concentration that produces a relative color yield half way between the maximum and minimum is taken as the IC50 value.
(§8) S1-M1 cells overexpress the MXR transporter which mediates resistance to some chemotherapeutics (Gottesman, M. M., Fojo, T., and Bates, S. E. Miltidrug resistance in cancer: role of ATP-dependent transporters. Nature Rev. Cancer, 2: 48-58, 2002). The IC50 values of representative examples of this invention, as well as reference compounds, on S1-M1 are compared to values on the sensitive parental S1 line.

Data set [6] relates to KB-8-5 cells. In words: MTS cytotoxicity test with KB-8-5 cells (moderate P-glycoprotein). The conditions noted are these: KB 8.5 cells, mean of 2 experiments. The data set is classed as cell-based, human.
Source text: as §5, §4, §6, §7

For data set [7], the system named is KB cells. The data set is described as follows: MTS cytotoxicity test with KB cells. The data set is classed as cell-based, human. The conditions noted are these: mean of 2 experiments.
Source text: as §5, §4, §6, §7

Data set [8] deals with HL-60 cells. In words: MTS cytotoxicity test with HL-60 cells. The data set is classed as cell-based, human. The conditions noted are these: mean of 2 experiments.
Source text: as §5, §4, §6, §7
(§9) HL-60/ADR cells overexpress the multidrug resistance protein MRP1 which mediates resistance to some chemotherapeutics (Gottesman, M. M., Fojo, T., and Bates, S. E. Multidrug resistance in cancer: role of ATP-dependent transporters. Nature Rev. Cancer, 2: 48-58, 2002). The IC50 values of representative examples of this invention, as well as reference compounds, on HL-60/ADR are compared to values on the sensitive parental HL-60 line.

Data set [9] relates to HL-60/ADR cells. In words: MTS cytotoxicity test with HL-60/ADR cells (MRP1). The data set is classed as cell-based, human. The conditions noted are these: for IC50: HL-60/ADR cells, mean of 2 experiments; for Ratio: IC50 on HL-60/ADR cells/IC50 on HL-60 cells.
Source text: as §5, §4, §6, §7, §9

The subject of data set [10] is KB-V1 cells. The data set is described as follows: MTS cytotoxicity test with KB-V1 cells (very high P-glycoprotein). The data set is classed as cell-based, human. The conditions noted are these: for IC50: KB VI cells, mean of 2 experiments.
Source text: as §5, §4, §6, §7

The test system of data set [11] is S1 cells. The data set is described as follows: MTS cytotoxicity test with S1 cells. The data set is classed as cell-based, human. The conditions noted are these: mean of 2 experiments.
Source text: as §5, §4, §6, §7, §8

As to `CC(=O)O[C@@]12CO[C@@H]1C[C@H](O)[C@@]1(C)C(=O)[C@H](O)C3=C(C)[C@@H](OC(=O)[C@H](O)[C@@H](NC(=O)OC(C)(C)C)c4ccccc4)C[C@@](O)([C@@H](OC(=O)c4ccccc4)[C@H]21)C3(C)C` [Docetaxel, reference compound], in data set [1], the “A340 Compound / A340 Control” value came out at 8.6.

Consider `CN(C#N)c1nc(Cl)c(-c2c(F)cc(F)cc2F)c(NCC(F)(F)F)n1` [Example 1, 4-Chloro-6-[(2,2,2-trifluoroethyl)amino]-5-(2,4,6-trifluorophenyl)pyrimidin-2-yl(methyl)cyanamide], for which, in data set [2], the “[3H]Vinblastine binding, Mean” value is given as 30 % of control. In addition, the “[3H]Colchicine binding, Mean” value in data set [3] is 47 % of control. For the same compound, in data set [4] (Homo sapiens, 72 h), the pIC50 is 6.67.

Take `Fc1cc(F)c(-c2c(Cl)nc(-n3ccnc3)nc2NCC(F)(F)F)c(F)c1` [Example 15, 6-Chloro-2-(1H-imidazol-1-yl)-N-(2,2,2-trifluoroethyl)-5-(2,4,6-trifluorophenyl)pyrimidin-4-amine]: the melting point was 168 to 170 °C. Also, the pIC50 in [4] (Homo sapiens, 72 h) is 5.52.

In the case of `CN(C)CCCOc1cc(F)c(-c2c(Cl)nc(N(C)C#N)nc2NCC(F)(F)F)c(F)c1` [Example 19, 4-Chloro-5-{4-[3-(dimethylamino)propoxy]-2,6-difluorophenyl}-6-[(2,2,2-trifluoroethyl)amino]pyrimidin-2-yl(methyl)cyanamide], the IC50 in data set [5] (Homo sapiens) stood at 88 nM; in data set [6] (Homo sapiens), 69 nM; in data set [7] (Homo sapiens) it was 63 nM; in [8] (Homo sapiens) it was 66 nM; in data set [9] (Homo sapiens, HL60/ADR) it was 60 nM; in data set [10] (Homo sapiens, KB-V1), 176 nM. Inhibition in [11] (Homo sapiens) was half-maximal at 88 nM (IC50). Also, the Ratio was 1.0 in data set [5] and 0.9 in data set [9]. Also, in data set [2], the “[3H]Vinblastine binding, Mean” value is 22 % of control. The “[3H]Colchicine binding, Mean” value in data set [3] was 116 % of control. The negative logarithm of the IC50 (pIC50) in [4] (Homo sapiens, 72 h) was 7.28.

With `CN(C)CCCOc1cc(F)c(-c2c(Cl)nc(-n3ccnc3)nc2NCC(F)(F)F)c(F)c1` [Example 31, 6-Chloro-5-{4-[3-(dimethylamino)propoxy]-2,6-difluorophenyl}-2-(1H-imidazol-1-yl)-N-(2,2,2-trifluoroethyl)pyrimidin-4-amine], the melting point lay within 47 to 49 °C. In data set [4] (Homo sapiens, 72 h), the pIC50 is 6.17.

Take `CNCCCOc1cc(F)c(-c2c(Cl)nc(-c3cnccn3)nc2C2CCCCCC2)c(F)c1.O=C(O)C(F)(F)F` [Example 33a, N-{3-[4-(4-Chloro-6-cycloheptyl-2-pyrazin-2-ylpyrimidin-5-yl)-3,5-difluorophenoxy]propyl}-N-methylamine trifluoroacetic acide salt]: the Ratio in [5] stood at 1.4; in data set [9], 0.9. The IC50 is 12 nM in [5]; 7.5 nM in data set [6]; 6.8 nM in [7]; 6.9 nM in [8]; 6.1 nM in [9]; 91 nM in data set [10]. In addition, inhibition in data set [11] was half-maximal at 8.5 nM (IC50). The negative-log IC50 (pIC50) in [4] was 8.09. For the same compound, the “Ratio VI/KB” value in data set [10] (IC50 on KB VI cells/IC50 on KB cells) was 13. Moreover, in data set [10] (inferred from change in IC50 KB-V1 vs KB), the “recognition by P-glycoprotein” value is “show recognition by P-glycoprotein, but much less than that shown by paclitaxel and vincristine”. In data set [1], the “A340 Compound / A340 Control” value is recorded as 0.5.
